In US6716854B2, “Treatments for restless legs syndrome” (Pfizer, Inc., priority 2000, dated 2004):
Where a name gives a salt, the structure may show the parent alone.

Legend:
[1] = test system: people with RLS; settings: recent studies quoted from RLS Internet site; cited from earlier work
[2] = test system: RLS patients; settings: cited from earlier work
[3] = in vivo; cited from earlier work

For `CN[C@@H]1Cc2cccc3[nH]c(=S)n(c23)C1.O=C(O)/C=C\C(=O)O`, the melting point was 195 to 196 °C.

For `CCCN1C[C@H](CSC)C[C@@H]2c3cccc4[nH]cc(c34)C[C@H]21` [Permax®, pergolide mesylate], the “effectiveness in treating RLS relative to Sinemet” value [1] is listed as “as effective as Sinemet®” and the “potential for causing augmentation” value [1] is listed as 10%.

Work on `CN[C@@H]1Cc2cccc3[nH]c(=S)n(c23)C1` yielded a melting point of 210 to 213 °C.

In the case of `N[C@@H](Cc1ccc(O)c(O)c1)C(=O)O` [L-dopa], the “suppression of RLS” value ([2]; L-dopa 100 mg with carbidopa 10 mg, in most cases, rebound of PLMS in last part of night) is given as “completely suppresses RLS” and the “effect on RLS at bedtime and PLMS throughout the night” value ([2]; administered twice at night, PSG recordings, double-blind) is given as “significant reduction”.

For `CCCN1C[C@H](CSC)C[C@@H]2c3cccc4[nH]cc(c34)C[C@H]21` [Pergolide], the half-life [3] is given as 7 to 16 h.
